We go through four compounds from patent publication US5646131A, “Method for solubilizing drugs using cyclodextrins and carboxylic acids” (The Arab Company For Drug Industries And Medical …, priority 1995, dated 1997).

In general, solubility refers to the concentration that dissolves in the medium under given conditions. A higher solubility goes with a readily soluble substance.

Data set [1] can be described thus: physchem. To be noted: water.
Protocol: (§1) The solubilities (in mg/ml) of the drugs were investigated at 30° C., in water; in water containing 2% β-cyclodextrin; and in aqueous solution of 2% selected cyclodextrin and 1% selected polyfunctional acid or corresponding salt.
The conditions of data set [2]: 30° C.; for Solubility, beta-cyclodextrin + citric acid / Solubility, beta-cyclodextrin + glutaric acid / Solubility, beta-cyclodextrin + lactic acid / Solubility, beta-cyclodextrin + tartaric acid: 2% β-cyclodextrin; for Solubility, beta-cyclodextrin + lactic acid: 1% lactic acid; for Solubility in 2% aq. beta CD soln.: water containing 2% β-cyclodextrin.
Protocol: as §1
The conditions of data set [3]: with β-cyclodextrin; Menard et al 1990; cited from earlier work.

In brackets after ≈: the same amount, converted by molar mass. Read-outs that look alike come from different tables or passages of the source.

In the case of `COc1cc(N)c(Cl)cc1C(=O)NC1CCN(CCCOc2ccc(F)cc2)CC1OC` (stereo not shown) [Cisapride], the concentration in solution in data set [1] (solubility) came to 3 µg/mL (≈ 6.44 µM). In addition, the “Solubility, beta-cyclodextrin + citric acid” value in data set [2] (1% citric acid, aqueous) amounted to 550 µg/mL. Moreover, the “Solubility, beta-cyclodextrin + glutaric acid” value in data set [2] (1% glutaric acid, aqueous) was 2070 µg/mL. In data set [2] (aqueous), the “Solubility, beta-cyclodextrin + lactic acid” value came out at 11400 µg/mL. In addition, the “Solubility, beta-cyclodextrin + tartaric acid” value in data set [2] (1% tartaric acid, aqueous) is 4380 µg/mL. The “Solubility in 2% aq. beta CD soln.” value in data set [2] was determined as 15 µg/mL (≈ 32.2 µM).
Take `CC(C)(C)c1ccc(C(O)CCCN2CCC(C(O)(c3ccccc3)c3ccccc3)CC2)cc1` (stereo not shown) [Terfenadine]: the solubility in data set [1] is below 10 µg/mL. Also, in data set [2] (2% α-cyclodextrin, 1% citric acid, aqueous), the “Solubility, alpha-cyclodextrin + citric acid” value was determined as 2150 µg/mL. Besides, the “Solubility, alpha-cyclodextrin + glutaric acid” value in data set [2] (2% α-cyclodextrin, 1% glutaric acid, aqueous) worked out at 7170 µg/mL. The “Solubility, alpha-cyclodextrin + tartaric acid” value in data set [2] (2% α-cyclodextrin, 1% tartaric acid, aqueous) turned out to be 1310 µg/mL. Besides, in data set [2] (1% citric acid, aqueous), the “Solubility, beta-cyclodextrin + citric acid” value amounted to 5680 µg/mL. Moreover, in data set [2] (1% glutaric acid, aqueous), the “Solubility, beta-cyclodextrin + glutaric acid” value was found to be 5490 µg/mL. Besides, the “Solubility, beta-cyclodextrin + lactic acid” value in data set [2] (aqueous) amounted to 8870 µg/mL. For the same compound, the “Solubility, beta-cyclodextrin + tartaric acid” value in data set [2] (1% tartaric acid, aqueous) amounted to 5210 µg/mL. Further, the “Solubility, gamma-cyclodextrin + citric acid” value in data set [2] (2% γ-cyclodextrin, 1% citric acid, aqueous) amounted to 2200 µg/mL. Further, the “Solubility, gamma-cyclodextrin + glutaric acid” value in data set [2] (2% γ-cyclodextrin, 1% glutaric acid, aqueous) was determined as 6080 µg/mL. Further, the “Solubility, gamma-cyclodextrin + tartaric acid” value in data set [2] (2% γ-cyclodextrin, 1% tartaric acid, aqueous) is 1220 µg/mL. Moreover, the “Solubility in 2% aq. beta CD soln.” value in data set [2] came to 10 µg/mL (≈ 21.2 µM).
On to `CC(C)Cc1ccc(C(C)C(=O)O)cc1` (stereo not shown) [Ibuprofen], for which the solubility in data set [1] is below 10 µg/mL. Also, the “Relationship between solubility and concentration at different pH” value in data set [3] was “the relationship between solubility and concentration is the same at different pH levels”. The “Solubility, beta-cyclodextrin + glutaric acid (*trisodium salt)” value (2% beta-cd, 1% glutarate salt) was determined as 3000 µg/mL. Besides, the “Solubility, beta-cyclodextrin + tartaric acid (*trisodium salt)” value (2% beta-cd, 1% tartrate salt) is 1360 µg/mL. Also, the “Solubility in 2% aq. beta CD soln.” value (water, 2% beta-cyclodextrin) came to 690 µg/mL (≈ 3340 µM).
`CN1C(C(=O)Nc2ccccn2)=C(O)c2ccccc2S1(=O)=O` [Piroxicam]: the “Solubility in 2% aq. beta CD soln.” value in data set [2] came to 72 µg/mL (≈ 217 µM). Also, the Solubility in water result in data set [2] (water) was “insoluble”.
